In publication PMC7074166, “Screening for Small Molecule Modulators of Trypanosoma brucei Hsp70 Chaperone Activity Based upon Alcyonarian Coral-Derived Natural Products” (Marine Drugs, 2020):
pIC50: −log10 of the molar value. Read-outs that look alike come from different tables or passages of the source.

Experiments:
TbHsp70.4 / Tbj2 = test: Tbj2-stimulated ATPase activity assay, TbHsp70.4; format: biochemical, Trypanosoma brucei; conditions: TbHsp70.4, 150 μM, Figure 5B
Method: (§1) The determination of the ATPase activity of the Hsp70 proteins was performed using the high throughput colorimetric ATPase assay kit (Innova Biosciences, Cambridge, UK). This method enables the quantification of the inorganic phosphate (Pi) released from ATP hydrolysis by an enzyme. Briefly, the molecular chaperones were prepared in ATPase assay buffer (100 mM Tris-HCl, 7.5, 2 mM MgCl2, 50 mM KCl, 0.5 mM DTT) and incubated with ATP (0–2 mM) for 1 h at 37 °C. […] The samples containing Pi hydrolysed from ATP were incubated with the PiColorLock™ solution, which is a malachite green dye solution that in the presence of Pi changes absorbance due to generation of molybdate-phosphate complexes. The absorbance was measured at 595 nm using a Powerwave 96-well plate reader (BioTek Instruments, Inc., Winooski, VT, USA), and absorbance values were converted to phosphate concentrations using a standard curve of absorbance vs. phosphate concentration based on a set of Pi standards provided by the supplier assayed along with the samples. All samples were corrected for spontaneous breakdown of ATP observed in a control experiment in the absence of protein. The trypanosomal and human Hsp70s were used at 0.8 μM, and the J-proteins were used at 0.4 μM. An initial screen of the modulatory effects of the compounds on the ATPase activity of the Hsp70s was conducted using 300 μM of the compounds. Compounds identified to have a modulatory effect on the basal and J-protein-stimulated ATPase activity of Hsp70 were used at varying concentrations. The modulatory effect of the selected compounds on the basal and J-protein stimulated ATPase activity of the T. brucei Hsp70s was represented as fold change with the basal and J-protein stimulated ATPase activity of the Hsp70s taken as 1 respectively. These experiments were conducted on three independently purified batches of proteins, but due to limited availability of the selected compounds, each assay was conducted in duplicate on each batch of protein. In control reactions to evaluate the effect of DMSO on basal and J-protein stimulated ATPase activity of the Hsp70s, the solvent was added to a final concentration of 1% (v/v) in the assay. The assays were performed in duplicate on three independently purified batches of proteins.

[1] = test system: bloodstream form T. b. brucei parasites; test: Resazurin-based anti-trypanosomal assay on bloodstream form T. b. brucei parasites; format: cell-based, Trypanosoma brucei brucei; conditions: Trypanosoma brucei; for IC50: Table 1, T. b. brucei parasites cultured in vitro, dose-response, read-out: IC50/μM
Method: Bloodstream form T. b. brucei Lister 927 variant 221 strain parasites were cultured in filter sterilized complete Iscoves Modified Dulbeccos Media (IMDM) based HM1-9 medium (IMDM base powder, […] sodium bicarbonate, 1 mM hypoxanthine, 1 mM sodium pyruvate, 0.16 mM thymidine, 0.05 mM bathocuprone sulphate acid, 10% (v/v) heat inactivated foetal bovine serum, 1.5 mM L-cysteine, 0.2 mM β-mercaptoethanol, pH 7.5) in a humidified chamber at 37 °C with an atmosphere of 5% CO2. Parasite growth was monitored using a Neubauer haemocytometer to count the cell number, after which cells were diluted, according to their density, in the described pre-warmed media.
All compounds of interest were resuspended to stocks of 30 mM in DMSO and stored at −80 °C prior to use in in vitro experiments. For assessment of anti-trypanosomal activity, compounds were added to in vitro cultures of bloodstream form T. b. brucei parasites (1 × 10^5 cells/mL) in 96-well plates at a fixed concentration of 20 μM. After an incubation period of 48 h, the number of parasites surviving drug exposure were determined using a resazurin-based cytotoxicity assay. Resazurin is an oxidation–reduction sensitive dye that is reduced by living cells to resorufin. Resorufin is a fluorophore (Excitation560/Emission590) and thus was quantified in a multi-well fluorescence plate reader. Results are expressed as % parasite viability—the resorufin fluorescence in small molecule-treated wells relative to untreated controls. Assessment of each small molecule was conducted in duplicate, with error bars representing standard deviation (SD). […] The compounds were added to in vitro cultures of bloodstream form T. b. brucei parasites (1 × 10^5 cells/mL) in 96-well plates in a 3-fold dilution series with 100 μM as the highest concentration. After an incubation period of 48 h, the number of parasites surviving drug exposure were determined as previously mentioned. The % parasite viability was determined as previously mentioned. The IC50 (the concentration of compound required to decrease cell viability of T. b. brucei parasites by 50% compared to those grown in the absence of the compound) values for each of the compounds were determined from a dose–response curve by non-linear regression generated using GraphPad Prism® (v. 7.0; San Diego, CA, USA) software. For comparative purposes, pentamidine at a fixed concentration of 1 μM was employed as a drug standard.

TbHsp70 / Tbj2 = target: T1, TbHsp70 / Tbj2 (Trypanosoma brucei brucei, UniProt P11145); test: Tbj2-stimulated ATPase activity assay, TbHsp70; format: biochemical; conditions: TbHsp70, 150 μM, Figure 5A
T1 construct: His-tag; made in house; host or cells: Escherichia coli (Tbj2: E. coli BL21 (DE3))
Method: as §1

[2] = test system: HeLa (human cervix adenocarcinoma) cells; test: Resazurin-based cytotoxicity assay on a mammalian cell line; conditions: 20 μM, Figure S2
Method: HeLa cells were grown and maintained in a culture medium comprised of Dulbecco’s Modified Eagle’s Medium (DMEM) with 5 mM L-glutamine (Lonza, Basel, Switzerland), supplemented with 10% (v/v) heat inactivated foetal bovine serum and antibiotics (penicillin/streptomycin/fungizone-PSF) in a humidified chamber at 37 °C with an atmosphere of 5% CO2. To carry out passaging of cells, cultures were treated with 1% trypsin (w/v) to lift cells, which were then washed in 1 × phosphate buffered saline (PBS) before being re-seeded into culture flasks. For assessment of the cytotoxic effects, the small molecules were added to HeLa cells at a fixed concentration of 20 μM. After an incubation period of 24 h, the number of cells surviving drug exposure were determined using a resazurin-based cytotoxicity assay. The resazurin-based cytotoxicity assay was conducted as previously mentioned. Results were expressed as % cell—the resorufin fluorescence in small molecule-treated wells relative to untreated controls. Assessment of each small molecule was conducted in duplicate, with error bars representing standard deviation (SD).

[3] = T. b. brucei parasites, stated as bound, read-out: IC50 values
[4] = Table S1, 48 select compounds, T. b. brucei, 48 h, read-out: IC50/

T1 sequence (P11145 whole entry): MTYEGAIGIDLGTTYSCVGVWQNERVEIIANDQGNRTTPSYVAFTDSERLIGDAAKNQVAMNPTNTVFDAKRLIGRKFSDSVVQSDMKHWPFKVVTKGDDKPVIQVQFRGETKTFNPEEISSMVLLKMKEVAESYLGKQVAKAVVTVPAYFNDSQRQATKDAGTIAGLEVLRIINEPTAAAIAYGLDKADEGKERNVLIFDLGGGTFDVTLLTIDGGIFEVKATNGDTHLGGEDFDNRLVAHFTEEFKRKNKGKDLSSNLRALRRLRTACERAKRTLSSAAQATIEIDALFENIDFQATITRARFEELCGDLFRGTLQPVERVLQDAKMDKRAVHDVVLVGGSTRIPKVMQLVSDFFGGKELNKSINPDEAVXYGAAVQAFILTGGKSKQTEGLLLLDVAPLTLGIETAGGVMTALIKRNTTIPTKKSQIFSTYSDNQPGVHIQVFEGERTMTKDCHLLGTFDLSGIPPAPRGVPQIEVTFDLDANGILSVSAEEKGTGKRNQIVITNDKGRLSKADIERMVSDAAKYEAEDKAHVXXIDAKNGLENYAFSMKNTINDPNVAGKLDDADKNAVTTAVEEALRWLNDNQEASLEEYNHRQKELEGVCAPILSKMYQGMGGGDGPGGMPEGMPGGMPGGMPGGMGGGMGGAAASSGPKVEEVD

CC(C)=CCC/C(C)=C/CCC(C)=CCn1ccc(=N)n(CC=C(C)CC/C=C(\C)CCC=C(C)C)c1=O [Compound 63, 4-imino-1,3-bis((6E)-3,7,11-trimethyldodeca-2,6,10-trien-1-yl)-3,4-dihydropyrimidin-2(1H)-one]
effect of order of addition (compound vs Tbj2) on inhibition of J-stimulated ATPase activity (TbHsp70.4 / Tbj2): no significant difference | pIC50 [1, 3]: > 5.15 | IC50 ([1]; 48 h): 2.1 µM | pIC50 [1, 4]: 5.69 | effect of order of addition (compound vs Tbj2) on inhibition of J-stimulated ATPase activity (TbHsp70 / Tbj2): no significant difference

CC(C)=CCC/C(C)=C/CCC(C)=CCn1ccc(=NC=O)n(CC=C(C)CC/C=C(\C)CCC=C(C)C)c1=O [Compound 62, N-(-2-Oxo-1,3-bis((6E)-3,7,11-trimethyldodeca-2,6,10-trien-1-yl)-2,3-dihydropyrimidin-4(1H)-ylidene)formamide]
toxicity to HeLa cells [2]: toxic

CC(C)=CCC/C(C)=C/Cn1cnc(=N)c2ncn(C/C=C(\C)CCC=C(C)C)c21 [Compound 5, 3,9-bis((E)-3,7-dimethylocta-2,6-dien-1-yl)-3,9-dihydro-6H-purin-6-imine]
toxicity to HeLa cells [2]: toxic

CC(C)=CCC/C(C)=C/Cn1cnc2c1c(=O)[nH]c(=O)n2C/C=C(\C)CCC=C(C)C [Compound 27, 3,7-Bis((E)-3,7-dimethylocta-2,6-dien-1-yl)-3,7-dihydro-1H-purine-2,6-dione]
effect of order of addition (compound vs Tbj2) on inhibition of J-stimulated ATPase activity (TbHsp70.4 / Tbj2): no significant difference | pIC50 [1, 3]: > 5.15 | IC50 ([1]; 48 h): 2 µM | effect of order of addition (compound vs Tbj2) on inhibition of J-stimulated ATPase activity (TbHsp70 / Tbj2): no significant difference

CC(C)=CCC/C(C)=C/CC/C(C)=C/Cn1cnc2c1c(=O)[nH]c(=O)n2C [Compound 31, 3-methyl-7-((2E,6E)-3,7,11-trimethyldodeca-2,6,10-trien-1-yl)-3,7-dihydro-1H-purine-2,6-dione]
effect of order of addition (compound vs Tbj2) on inhibition of J-stimulated ATPase activity (TbHsp70.4 / Tbj2): no significant difference | pIC50 [1, 3]: > 5.15 | IC50 ([1]; 48 h): 1.9 µM | pIC50 [1, 4]: 5.72 | effect of order of addition (compound vs Tbj2) on inhibition of J-stimulated ATPase activity (TbHsp70 / Tbj2): no significant difference

CC(C)=CCC/C(C)=C/CCC(C)=CCn1cnc2c1c(=O)[nH]c(=O)n2CC=C(C)CC/C=C(\C)CCC=C(C)C [Compound 28, 3,7-Bis((6E)-3,7,11-trimethyldodeca-2,6,10-trien-1-yl)-3,7-dihydro-1H-purine-2,6-dione]
effect of order of addition (compound vs Tbj2) on inhibition of J-stimulated ATPase activity (TbHsp70.4 / Tbj2): no significant difference | pIC50 [1, 3]: > 5.15 | IC50 ([1]; 48 h): 1.2 µM | pIC50 [1, 4]: 5.94 | effect of order of addition (compound vs Tbj2) on inhibition of J-stimulated ATPase activity (TbHsp70 / Tbj2): no significant difference

CC(C)=CCC/C(C)=C/CC/C(C)=C\Cn1cnc2c1c(=O)[nH]c(=O)n2C [Compound 30, 3-Methyl-7-((2Z,6E)-3,7,11-trimethyldodeca-2,6,10-trien-1-yl)-3,7-dihydro-1H-purine-2,6-dione]
IC50 ([1]; 48 h): 4.6 µM | pIC50 [1, 4]: 5.34

CC(C)=CCC/C(C)=C/CC/C(C)=C/CC/C(C)=C\Cn1cnc2ncnc(Cl)c21 [Compound 21, 6-chloro-7-((2Z,6E,10E)-3,7,11,15-tetramethylhexadeca-2,6,10,14-tetraen-1-yl)-7H-purine]
IC50 ([1]; 48 h): 19.1 µM | pIC50 [1, 4]: 4.72

CC(C)=CCC/C(C)=C/Cn1cnc2c(Cl)ncnc21 [Compound 15, (E)-6-Chloro-9-(3,7-dimethylocta-2,6-dien-1-yl)-9H-purine]
IC50 ([1]; 48 h): 12.2 µM | pIC50 [1, 4]: 4.91

CC(C)=CCC/C(C)=C/CC/C(C)=C/CC/C(C)=C/Cn1cnc2c1c(=O)n(C)c(=O)n2C [Compound 37, 1,3-dimethyl-7-((2E,6E,10E)-3,7,11,15-tetramethylhexadeca-2,6,10,14-tetraen-1-yl)-3,7-dihydro-1H-purine-2,6-dione]
IC50 ([1]; 48 h): 21.6 µM

CC(C)=CCC/C(C)=C/CC/C(C)=C/CC/C(C)=C\Cn1cnc2c(N(C)C)ncnc21 [Compound 13, N,N-Dimethyl-9-((2Z,6E,10E)-3,7,11,15-tetramethylhexadeca-2,6,10,14-tetraen-1-yl)-9H-purin-6-amine]
IC50 ([1]; 48 h): 8.7 µM | pIC50 [1, 4]: 5.06

CC(C)=CCC/C(C)=C/CC/C(C)=C/CC/C(C)=C/Cn1cnc2ncnc(Cl)c21 [Compound 20, 6-chloro-7-((2E,6E,10E)-3,7,11,15-tetramethylhexadeca-2,6,10,14-tetraen-1-yl)-7H-purine]
IC50 ([1]; 48 h): 11 µM | pIC50 [1, 4]: 4.96

CC(=O)NC/C=C(/C)CC/C=C(\C)CCC=C(C)C [Compound 82, N-((2Z,6E)-3,7,11-Trimethyldodeca-2,6,10-trien-1-yl)acetamide]
IC50 ([1]; 48 h): 4.5 µM | pIC50 [1, 4]: 5.35

CC(C)=CCC/C(C)=C/CCC(C)=CCn1cc2c(=O)ncn(CC=C(C)CC/C=C(\C)CCC=C(C)C)c2n1 [Compound 48, 2,7-bis((6E)-3,7,11-trimethyldodeca-2,6,10-trien-1-yl)-2,7-dihydro-4H-pyrazolo[3,4-d]pyrimidin-4-one]
pIC50 [1, 3]: > 5.15 | IC50 ([1]; 48 h): 5.5 µM | pIC50 [1, 4]: 5.26

CC(C)=CCC/C(C)=C/CC/C(C)=C/CC/C(C)=C/CNC=O [Compound 77, N-((2E,6E,10E)-3,7,11,15-tetramethylhexadeca-2,6,10,14-tetraen-1-yl)formamide]
IC50 ([1]; 48 h): 41.8 µM | pIC50 [1, 4]: 4.38

CC(C)=CCC/C(C)=C/CC12NC(=O)N=C1N(C)C(=O)N(C)C2=O (centres unmarked) [Compound 42, (E)-5-(3,7-Dimethylocta-2,6-dien-1-yl)-1,3-dimethyl-5,7-dihydro-1H-purine-2,6,8(3H)-trione]
IC50 ([1]; 48 h): 10.9 µM | pIC50 [1, 4]: 4.96

CC(C)=CCC/C(C)=C/CC/C(C)=C/CC/C(C)=C/Cn1cc(C)c(=O)[nH]c1=O [Compound 59, 5-Methyl-1-((2E,6E,10E)-3,7,11,15-tetramethylhexadeca-2,6,10,14-tetraen-1-yl)pyrimidine-2,4(1H,3H)-dione]
IC50 ([1]; 48 h): 15.8 µM

CC(=O)NC/C=C(/C)CC/C=C(\C)CC/C=C(\C)CCC=C(C)C [Compound 84, N-((2Z,6E,10E)-3,7,11,15-Tetramethylhexadeca-2,6,10,14-tetraen-1-yl)acetamide]
IC50 ([1]; 48 h): 2.2 µM | pIC50 [1, 4]: 5.66
